From ChEMBL document CHEMBL3832050, “DailyMed|setid=da574350-be6b-49f3-b2ef-64da06af9b9d | PAMDRONATE DISODIUM - pamodronate disodium injection, solution|GENERAMEDIX, INC”

Experiments:
Homo sapiens = experiment: (§1) Mean pharmacokinetic parameters for Pamidronate after intravenous infusion of 30, 60 and 90 mg of Pamidronate disodium for 4 hours and 90 mg for 24 hours in cancer patients, 6 in each group.; type: ADME, organism-based; parameters: dose 90 mg, dose 30 mg, dose 60 mg, route iv; settings: in vivo, iv, dosed compound id 8, dosed compound name PAMIDRONATE DISODIUM, gender male and female, regimen Single dose; for Excretion: tissue Urine
[1] = as §1; type: ADME, organism-based; parameters: dose 90 mg, dose 30 mg, dose 60 mg, route iv; settings: human, in vivo, dosed compound id 8, dosed compound name PAMIDRONATE DISODIUM, gender male and female, regimen Single dose, route iv, study dosing duration 4 hours
[2] = dose 60 mg, study dosing duration 4 hours, tissue Plasma
[3] = dose 90 mg, study dosing duration 4 hours, tissue Plasma
[4] = dose 90 mg, study dosing duration 24 hours, tissue Plasma

## NCCC(O)(P(=O)([O-])O)P(=O)([O-])O.[Na+].[Na+]
Homo sapiens; at 60 mg, study dosing duration 4 hours
  Excretion: 47.4%
Homo sapiens; at 90 mg, study dosing duration 4 hours
  Excretion: 45.3%
Homo sapiens; at 90 mg, study dosing duration 24 hours
  Excretion: 47.5%
Homo sapiens; [2]
  CL: 88 mL/min
  CL_renal: 42 mL/min
Homo sapiens; [3]
  CL: 103 mL/min
  CL_renal: 44 mL/min
Homo sapiens; [4]
  CL: 101 mL/min
  CL_renal: 52 mL/min
Homo sapiens; study dosing duration 24 hours, tissue Plasma
  Cmax: 1.38 µg/mL
[1]; iv, at 30 mg, tissue Urine, read-out: Excretion
  dose excreted: 43.9%
[1]; dose 30 mg, tissue Plasma
  clearance: 136 mL/min
[1]; dose 30 mg, tissue Plasma, read-out: CL_renal
  CL renal: 58 mL/min
